{"source": "patent US8603493B2", "about": "“Carbosilane dendrimers, preparation method thereof and use of same” (Dendrico, S.L., priority 2005, dated 2013)", "key": {"[1]": {"system": "PBMC", "test": "Staining with Trypan Blue of PBMC treated with dendriplexes or dendrimers", "conditions": "72 hours, (+/−)=2/1, IM8 3.93 μM, IM16 1.99 μM, ClNH4 3.98 μM, Phe 1.96 μM, NN 3.94 μM, SF 0.68 μM, G4 100 μM, PPT 0.88 μM (0.34 μM with SF, 1 μM with G4), n = 100 cells per count"}, "[2]": {"system": "PBMC", "test": "Flow cytometry test (size and complexity; live cells vs apoptosis-necrosis)", "type": "cell-based, human", "conditions": "72 hours, same concentrations as Trypan Blue test", "method": "The evaluation time on this occasion was 72 hours. The toxicity was evaluated on PBMC, produced in the manner described in Example 38. […] The ODN used was PPT, in the following way: • [ODN PPT] in the complex with the CBS: 2.57 (0.88 μM) • [ODN PPT] in the complex with SF: 0.34 μM • [ODN PPT] in the complex with G4: 1 μM […] The cells were either incubated with said complexes, a mixture of equal volume which contained ODN without CBS, a mixture which contained dendrimer alone, or with a mixture which contained only RPMI+complete medium which was used as negative control. The cells and/or the supernatant were then collected to be analysed by flow cytometry, confocal microscopy or cell DNA extraction. The percentages of cells with size and complexity corresponding to cells in apoptosis-necrosis were compared with the live cells. For this, the size (FW) and the complexity (SD) was evaluated by flow cytometry. To do this, a region was drawn around the cells with FW and SD corresponding to cells in apoptosis-necrosis and another around the cells with FW and SD corresponding to live cells. The percentages of cells present in each slide were compared. The graphics produced are shown in FIG. 15, wherein the X-axis represents the size (FW) and the Y-axis the complexity (SD). […] The cloud of dark cells corresponds to cells in apoptosis necrosis. The live cells are represented in grey."}, "[3]": {"system": "erythrocytes", "test": "Haemolysis test (haemoglobin release after 1 hour)", "type": "cell-based", "conditions": "positive control, 0.2% Triton X-100", "method": "A visual examination was carried out to detect the presence/absence of hemagglutination and quantification of haemoglobin release (haemolysis test) by spectrophotometry. ClNH4 was excluded from the dendrimers of previous Example 38, as the result had been more toxic for lymphocytes, and the results were compared with those produced for a PAMAN type generation 4 dendrimer.\nThe erythrocytes were obtained after being separated from the PBMC using the same Ficoll gradient cited in the previous Example. They were diluted in PBS to be able to view them individually. The cells were resuspended in 500 μl of PBS and were seeded in a 24-well plate (300,000/well). As positive control, cells treated with 0.2% Triton X-100 were used. Negative control: PBS (blank). The erythrocytes were incubated with different dendrimer concentrations. The presence of hemagglutination, number of cells and release of haemoglobin by hour were evaluated by collecting 100 μl of supernatant and measuring absorbencies by spectrophotometry using a plate reader at a wavelength of 550 nm and 690 nm as reference.\n100% haemolysis in the control of Triton X-100 (the cells treated with Triton were all dead and broken). […] Each well is expressed as the percentage with respect to the O.D. (optical density) of Triton X-100, which is considered 100%; in addition to that percentage 7% of the control is subtracted. […]"}, "[4]": {"system": "PBMC", "test": "Lymphoproliferative test (tritiated thymidine)", "type": "cell-based, human", "conditions": "positive control, 1 μg/mL, 5 days, tested 12 times", "method": "To evaluate the antigenic capacity of CBS dendrimers, a lymphoproliferative test was performed. The experiment was prepared in triplicate in a 96-well flat bottomed plate (100,000 cells per well in 200 μl of complete human AB medium with antibiotics, glutamine and 10% AB serum). […] After 5 days of incubation at 37° C. with 5% atmosphere of CO2 100 μl of supernatant was removed, then adding 100 μL of a medium with an isotopic intercalating agent of DNA, tritiated thymidine (prepared with 10% AB medium and Thymidine 1/100). The plate was then filtered using a Harvester passing its content through a filter, which was left to dry overnight (approx. 16 hours). After this period, a sheet of Methylex® containing scintillation medium was heat-melted, and it was read in a gamma camera to evaluate the number of counts (greater the counts, more proliferation). The results, which are shown below in Table 8, are expressed as tritiated thymidine counts per minute (cpm). Each result of each concentration was performed in triplicate, the value which appears in the table being the average of the 3. The PHA and the control were tested 12 times."}, "[5]": {"system": "ODN", "test": "Complex formation between CBS and ODN (agarose gel electrophoresis)", "type": "binding", "conditions": "3% agarose gel, RPMI, excess positive charge (+/−) 2/1 and higher", "excerpt": "The oligonucleotidic sequences used were antisense sequences (complementary) directed against HIV RNA. The length varied from 15 to 28 bases, being of phosphorothioate nature. The specific ODN used and their sequences are shown below in Table 1.\nSeveral of the ODN were used fluorescent at the 5′ end. This is indicated by adding the letter F to its notation. Thus, “GF” makes reference to the fluorescent anti-gag ODN at end 5′, whilst “RF” makes reference to the anti-Rev ODN fluorescent at end 5′.\nDifferent agarose concentrations were used to show the migration of the ODN and the dendriplexes, bearing in mind the small size of the ODN used. Finally, a 3% agarose concentration in TAE 1× was chosen as the best. The migration of non-fluorescent ODNs was compared with fluorescent ones, both migrating at the same height but the latter increasing the signal perceived considerably. Using them, it thus avoided the isotopic labelling of the ODN. A double well was manufactured to prepare these gels, to permit load volumes of 60 μl, of which 50 μl was mixture volume of the samples in RPMI and 10 μl load buffer with glycerol. As size marker, a ladder of 100 base pairs was used (Gibco BRL®).\nFor the complex formations in all the tests performed, both on gels and on cells the ratio between the number of positive and negative charges in said complex was taken. As published by different authors in studies with PAMAM dendrimers, it is necessary that the complex formed has an excess positive charge to facilitate its binding to the cell membrane glycoproteins, negatively charged, thus starting the endocytosis process. Likewise, an excess of positive charge is added to ensure the formation of the dendrimer-DNA complex. Therefore, the complexes between the CBS dendrimers and the different nucleic acids were formed in excess number of positive charges (provided by the CBS) compared with negative charges (provided by the ODN). Nevertheless, different charge ratios were tested, making the calculations based in the number of dendrimer charges (fixed) and the number of negative charges of the ODN (also fixed). The 2/1 ratio of positive/negative charges was fixed as sufficient in all dendrimers to form the complexes with a total positive charge, although in some experiments a balance was provided of an equal number of negative charges as positive charges or excess negative charges.\nIn all the tests, a complex formation volume of 60 μl was used, using phenol red without RPMI serum as support medium.\nTests of complex formation were used with the dendrimers of the invention IM8, ClNH4, NN, Phe and IM16.\nThe synthesis process of the CBS used in this work begins from an initial nucleus of common structure, which is ended functionalizing in the periphery by the use of different functional groups, which are those which provide the positive charge to the dendrimer and determine the differences between themselves, the dendrimeric nucleus being of apolar nature. Since some of the bonds of the functional groups used to the dendrimeric nucleus could be unstable in aqueous solution, tests were performed to determine if the DNA retention in agarose gels and, therefore, the complex formation between the CBS and the DNA could be due to the total dendrimer structure being conserved or in contrast, the terminal functional groups came away from the moiety of the dendrimeric core which are responsible for the DNA retention. For this, gels were used in which complexes were formed between the ODNs and the integral CBS and those formed supposedly between the ODNs and the terminal functional groups with which the carbosilane skeleton had functionalized, in this case quaternized dimethylethanolamine. As has previously been commented, those positively charged molecules, which are bound to the dendrimer as terminal functional groups, are those which give the dendrimer its charge. As control, the mixtures of ODN-dendrimers, ODN-monomers and ODN alone were compared. […]"}}}
{"substance": "PPT: antisense phosphorothioate ODN against HIV mRNA, AATTTTCTTTTCGCCCCT (SEQ ID NO: 3), 18 bases [reference compound]", "values": [{"measurement": "TB+ (%), cells stained with Trypan Blue", "setting": "[1]", "result": 11.9, "unit": "%"}, {"measurement": "Apoptosis-necrosis (%)", "setting": "[2]", "result": 23, "unit": "%"}, {"measurement": "Live cells (%)", "setting": "[2]", "result": 71, "unit": "%"}]}
{"substance": "Triton X-100", "values": [{"measurement": "haemolysis", "setting": "[3]", "result": 100, "unit": "%"}]}
{"substance": "phytohemagglutinin [PHA, reference compound]", "values": [{"measurement": "Measurement of the scintillation counter (tritiated thymidine counts)", "setting": "[4]", "result": 10267, "unit": "cpm"}]}
{"substance": "quaternized dimethylethanolamine [monomers, reference compound]", "values": [{"measurement": "complex formation with ODN (retention of DNA migration in gel)", "setting": "[5]", "result": "not being capable"}]}
